“Also recorded” adds a separate entry of the source.
Columns and labels:
TMEM function (CTCs) = assay: Clinical trial NCT02824575: oral rebastinib to inhibit TMEM function (CTCs) in breast cancer patients; type: in vivo, human
TMEM [1] = assay: TMEM-MRI test (Uth) in PyMT mouse model, control vs rebastinib; type: in vivo; details: mice, FIGS. 2-3
Description: FIGS. 3A-3E. Evaluation of TMEM-MRI assay sensitivity and its values as a companion diagnostic is illustrated by using TMEM-MRI to detect the effect of the commercially available TMEM inhibitor Rebastinib in PyMT mouse model. FIG. 3A depicts a schematic illustration and cohort composition of the MMTV-PyMT Control vs Rebastinib (Ctrl-Reb) transplantation model. FIG. 3B is a chart depicting upper threshold ratio (Uth) of Ctrl-and rebastinib (Reb)-treated tumors. FIG. 3C depicts extravascular dextran assay, showing TMEM association with leaky (lower row), but no association of TMEM with non-leaky (upper row) blood vessel. FIG. 3D is a chart depicting the comparison between extravascular dextran leakiness between Ctrl and Reb-treated tumors. FIG. 3E is a chart depicting circulating tumor cells in mice treated with rebastinib or vehicle control. […]
A new assay for TMEM activity has been developed and validated. […] Using intravenously injected Gd-DTPA, in a dynamic and quantitative assessment allowing assessment of the change in tissue permeability induced by TMEM, with adequate temporal and spatial resolution, the permeability change associated with the TMEM occurrence can be measured with high spatial resolution. […] TMEM facilitated increase in tissue diffusion, measured using the apparent diffusion constant or using Diffusion Tensor Imaging (DTI) may also be developed to detect TMEM. […]

TMEM [2] = details: mice with breast cancer, oral administration; cited from earlier work
circulating tumor cells = details: mice with breast cancer, chemotherapy-induced, oral administration; cited from earlier work
tumor cells = details: mouse models of breast cancer; cited from earlier work

CNC(=O)c1cc(Oc2ccc(NC(=O)Nc3cc(C(C)(C)C)nn3-c3ccc4ncccc4c3)c(F)c2)ccn1 [rebastinib, 4-[4-[(5-tert-butyl-2-quinolin-6-ylpyrazol-3-yl)carbamoylamino]-3-fluorophenoxy]-N-methylpyridine-2-carboxamide]
tumor cell dissemination (CTCs) in patients (TMEM function (CTCs)): prevents dissemination of tumor cells; also recorded: most patients achieved complete inhibition of tumor cell dissemination
TMEM activity detected by TMEM-MRI test (TMEM [1]): inhibition of TMEM activity
chemotherapy-induced TMEM activity (multiphoton imaging of the burst) (TMEM [2]): inhibited
cancer cell dissemination (circulating tumor cells in the blood, CTCs) (circulating tumor cells): inhibited
dissemination of tumor cells (tumor cells): prevents dissemination of tumor cells

From patent US20250057989A1, “TMEM-MCD IN THE MINIMALLY INVASIVE ASSESSMENT OF THE ACTIVITY STATUS OF TMEM IN ITS DISSEMINATION OF TUMOR CELLS” (Albert Einstein College of Medicine, priority 2018, published 2025)
